Test results published in patent publication US7846966B2, “Chroman derivatives as estrogenic compounds” (N.V. Organon, priority 2000, dated 2010).

Tested on: human estrogen receptor α (hERα) or β receptor (hERβ)
Assay: in vitro transactivation bioassay (estrogenic activity) in recombinant CHO cells co-transfected with hER, rat oxytocin promoter and luciferase reporter
Assay type: cell-based
Conditions: for Potency Transactivation (% relative to 17β-estradiol): agonist potency ratio vs estradiol, CHO cells, luciferase reporter, receptor subtype not given; for β/α ratio: ratio of hERβ to hERα
Method: The estrogenic and antiestrogenic activity of compounds is determined in an in vitro bioassay with recombinant Chinese hamster ovary (CHO) cells stably co-transfected with the human estrogen receptor α (hERα) or β receptor (hERβ), the rat oxytocin promoter (RO) and the luciferase reporter gene (LUC). The estrogenic activity (potency ratio) of a test compound to stimulate the transactivation of the enzyme luciferase mediated via the estrogen receptors hERα or hERβ is compared with the standard estrogen estradiol. The antiestrogenic activity (potency ratio) of a test compound to inhibit the transactivation of the enzyme luciferase mediated via the estrogen receptors hERα or hERβ by the estrogen estradiol is compared with the standard ICI 164.384 (=(7α, 17β)-N-butyl-3,17-dihydroxy-N-methylestra-1,3,5(10)-triene-7-undecanamide).

SMILES | Potency Transactivation (% relative to 17β-estradiol) | β/α ratio
CCCC(=O)Oc1ccc(C2Oc3ccc(OC(=O)CCC)cc3C(Cc3ccccc3)C2CC)cc1 (racemic) [Compound 6a] | +++ (+++ >10%) | +++ (+++ >30)
CCC1C(Cc2ccccc2)c2cc(O)ccc2OC1c1ccc(O)cc1 (stereo not drawn) [Compound 5b] | +++ (+++ >10%) | +++ (+++ >30)
CCC1C(Cc2ccccc2)c2cc(OC(=O)C(C)(C)C)ccc2OC1c1ccc(OC(=O)C(C)(C)C)cc1 (racemic) [Compound 6b] | + (+ between 0.1-4%) | + (+ between 3.5-10)
